pKd: −log10 of the molar value.

Consider eleven compounds from patent US20050192349A1, “Isolation of the peroxisome proliferation-activated receptor-gamma (PPARgamma) ligand and methods of use thereof” (Beth Israel Deaconess Medical Center, Inc., priority 2002, published 2005).

For series [1], the system named is PPARγ1. In words: Full-length PPARγ1 / p3DR1-luc luciferase reporter in CV-1 cells stimulated with conditioned media. It is filed as cell-based. Particulars: CV-1, pCMV-PPARγ and p3DR1-luc, with or without NBD1-VP16; various concentrations. Here is the method:
CV-1 cells were transfected with an expression vector encoding full-length PPARγ1 (pCMV-PPARγ) and a reporter plasmid p3DR1-1uc. p3DR1-luc contains a triple copy of PPARγ response element, Direct Repeat 1, linked to the luciferase gene. The cells were transfected with the reporter with or without NBD1-VP16 expression vector. The transfected cells were incubated with or without conditioned media in the absence or presence of various concentrations of PD068235. The cells were washed and lysed as described above for the β-gal assay, except that 50 μl of the lysate were mixed with 100 μl assay buffer and measured for 15 sec. in the Luminometer. Assay buffer consisted of 25 mM glycylglycine, 15 mM MgSO4, 4 mM EGTA, 1 mM DTT, 15 mM KH2PO4, 6 mM ATP and 100 μl of a 0.225 mg/ml luciferin stock solution.
Background: In a reporter assay the amount or activity of a reporter protein is the signal.

Series [2] has as its system 3T3-L1. As to conditions: cited from earlier work.
Series [3] concerns PPARγ ligand production in 5B2 cells. In words: Effect of COX and LOX inhibitors on PPARγ ligand production in differentiating 5B2 cells (β-gal activity). It is filed as cell-based, murine. Particulars: day 2. The text has this:
To test whether PPARγ ligand production was dependent upon cyclooxygenase (COX) or lipooxygenase (LOX), which would be expected if the ligand were a prostaglandin, the effect of COX and LOX inhibitors on PPARγ ligand production during 3T3-L1 differentiation into adipocytes was examined by measuring the β-gal activity in the stable cell line, 5B2.
5B2 cells were stimulated to differentiation into adipocytes as described above. The media containing the mixture of insulin, DEX and MIX is called d0 media on FIG. 10. In the experimental samples, d0 media contained the indicated COX or LOX inhibitor. The fold induction of β-gal activity of day 2 cells was compared to cells of day 2 stimulated in the absence of hormones (g media).

For series [4] the following is noted: cited from earlier work; for LDL levels: human, in vivo.
The target of series [5] is T1, PPARγ-LBD fused to GAL4-DBD (Mus musculus, UniProt P37238).
T1 sequence (P37238 238-503 limits assumed): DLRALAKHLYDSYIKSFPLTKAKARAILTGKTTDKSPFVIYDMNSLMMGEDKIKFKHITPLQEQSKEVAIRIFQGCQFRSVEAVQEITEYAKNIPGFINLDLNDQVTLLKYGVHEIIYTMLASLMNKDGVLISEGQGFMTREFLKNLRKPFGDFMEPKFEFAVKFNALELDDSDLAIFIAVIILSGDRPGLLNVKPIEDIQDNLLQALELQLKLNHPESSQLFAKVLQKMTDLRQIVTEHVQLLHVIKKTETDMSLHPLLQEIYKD
Kind of series: PPARγ ligand monitoring system (Gal4-PPARγ-LBD / pUH-gal β-gal reporter) in transfected CV-1 cells. As to conditions: 3T3-L1 stimulated 2 days with combinations of Ins, Mix and Dex.
Experimental: The effector and reporter constructs were transfected into either CV-1 cells (monkey kidney cells) or 3T3-L1 cells (murine fibroblast cells capable of being differentiated into adipocytes). Cells were grown according to standard protocols for these cells. For example, 3T3-L1 cells were grown and maintained as fibroblasts in DMEM/high glucose, containing 10% calf serum in a 10% CO2 humidified environment at 37° C. The cells were maintained at a subconfluent level so as to not prematurely arrest cell growth and induce differentiation. The cells were typically split 1:5 or 1:3 every 3 to 4 days. Cells were transfected using Lipofectamine™ 2000 Reagent (Life Technologies™, Carlsbad, Calif.) according to the manufacturers instructions. Cells were plated in 24 well dishes for the assay.
The washed cells were lysed with 200 μl lysis buffer (25 mM glycylglycine, 15 mM MgSO4, 4 mM EGTA, 1 mM DTT, 1% Triton) per well. […] The β-gal activity was measured for 10 sec. in a Luminometer (LB9507, EG&G, Bad Wildbad, Germany).
CV-1 cells were transfected as described above with pUH-G4-PPARγ and pUH-gal, with or without nuclear receptor interaction domain NBD1 of SRC-1 fused with VP16 or inactivated VP16. […] The treated, transfected cells were harvested and β-gal activity measured 48 hrs post-transfection.

Series [6] has as its target T1, PPARγ-LBD fused to GAL4-DBD. In words: β-gal activity in 3T3-L1 cell lines 5B2 and 5B3 stably transfected with the feedback monitoring system. It is filed as cell-based, murine. On the set-up: expressed in transfected cells.
For series [7], the target named is T2, PPARγ (Homo sapiens, UniProt P37231).
T2 sequence (P37231 1-505): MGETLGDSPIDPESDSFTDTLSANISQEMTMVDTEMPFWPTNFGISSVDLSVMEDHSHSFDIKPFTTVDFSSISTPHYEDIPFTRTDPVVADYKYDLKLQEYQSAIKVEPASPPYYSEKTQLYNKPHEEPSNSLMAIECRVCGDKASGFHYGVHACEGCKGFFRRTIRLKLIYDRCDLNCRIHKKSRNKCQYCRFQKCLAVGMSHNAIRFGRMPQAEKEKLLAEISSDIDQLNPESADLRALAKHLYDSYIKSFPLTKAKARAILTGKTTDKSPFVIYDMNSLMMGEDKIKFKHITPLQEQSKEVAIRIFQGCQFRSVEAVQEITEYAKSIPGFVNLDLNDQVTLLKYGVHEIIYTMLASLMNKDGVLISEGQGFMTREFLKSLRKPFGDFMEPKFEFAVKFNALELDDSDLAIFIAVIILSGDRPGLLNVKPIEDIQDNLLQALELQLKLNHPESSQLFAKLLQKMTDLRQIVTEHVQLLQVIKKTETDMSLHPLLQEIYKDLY
Particulars: cited from earlier work.

For `C=CCn1cc([N+](=O)[O-])sc1=NC(=O)C(C)(C)C` [PD068235], the “inhibition of CM-stimulated PPARγ transcriptional activity (luciferase)” value in series [1] is recorded as “dose-dependent inhibition of CM-stimulated PPARγ transcriptional activity”. Besides, the 3T3-L1 adipocyte differentiation result in series [2] is “prevent 3T3-L1 adipocyte differentiation”. Take `O=c1cc(-c2ccccc2)oc2cc(O)c(O)c(O)c12` [Baicalein]: the “effect on β-gal activity produced by stimulated 5B2 cells” value (“effect on β-gal activity produced” for short) in series [3] (5 μM in d0 media) is “no significant effect”. Consider `CC(Cc1ccc(O)c(O)c1)C(C)Cc1ccc(O)c(O)c1` (stereo not drawn) [NDGA], for which the “effect on β-gal activity produced” value in series [3] (10 μM in d0 media) was “no significant effect”.

Turning to `CC(C)c1ccc2c(c1)c(SC(C)(C)C)c(CC(C)(C)C(=O)O)n2Cc1ccc(Cl)cc1` [MK866], the “effect on β-gal activity produced” value in series [3] (5 μM in d0 media) is recorded as “no significant effect”. Turning to `Cc1c(C)c2c(c(C)c1O)CCC(C)(COc1ccc(CC3SC(=O)NC3=O)cc1)O2` (stereo not drawn) [Troglitazone], the LDL levels result in series [4] is given as “associated with a rise in LDL levels”. Also, in series [4] (patients), the liver toxicity entry is “liver toxicity in some patients”. Regarding `CC(C)Cn1c(=O)n(C)c(=O)c2[nH]cnc21` [Mix, methyl iso-butyl xanthine], the “ligand production of 3T3-L1 cells (β-gal activity of CV-1 cells incubated with conditioned media)” value in series [5] was “dependent on stimulation by Mix”. The “induction of β-gal activity by components of the adipogenic mixture” value in series [6] (5B2 and 5B3, combinations of Ins, 0.5 mM Mix, Dex, day 2) is listed as “dependent on the stimulation by Mix”. In addition, the “ligand production (β-gal activity) on stimulation with cAMP elevating compounds” value in series [6] (5B2 cells) is “induced the ligand production of differentiating pre-adipocytes by increasing the intracellular cAMP”. Consider `CCCCCC(O)c1ccc(OCc2ccc3ccccc3n2)cc1` (single isomer, unassigned) [REV 5901-para-isomer], for which, in series [3] (5 μM in d0 media), the “effect on β-gal activity produced” value is “no significant effect”. In the case of `COc1ccc2c(c1)c(CC(=O)O)c(C)n2C(=O)c1ccc(Cl)cc1` [Indomethacin], in series [3] (10 μM in d0 media), the “effect on β-gal activity produced” value is on record as “no significant effect”. For `CCCCC/C=C/C=C1/C(=O)C=C[C@@H]1C/C=C\CCCC(=O)O` [15-deoxyΔ^12,14PG J2], the pKd in series [7] (read-out: affinity (dissociation constant) of PPARγ for the ligand) was 4.30 to 5.70.

As to `CN(CCOc1ccc(CC2SC(=O)NC2=O)cc1)c1ccccn1` (stereo not drawn) [rosiglitazone], in series [4], the LDL levels result is reported as “associated with a rise in LDL levels”. Consider `CCCCC/C=C\C/C=C\CCCCCCCC(=O)O` [linoleic acid], for which the “direct binding to PPARγ” value in series [7] was “bind directly to PPARγ”.
